{"source": "paper PMC6934184", "about": "“Selective DNA-PKcs inhibition extends the therapeutic index of localized radiotherapy and chemotherapy” (The Journal of Clinical Investigation, 2019)", "target": "T1, EPHA2 (Homo sapiens, UniProt P29317)", "T1 construct": "purchased Thermo Fisher Scientific (Life Technologies) SelectScreen", "T1 sequence (P29317 24-976)": "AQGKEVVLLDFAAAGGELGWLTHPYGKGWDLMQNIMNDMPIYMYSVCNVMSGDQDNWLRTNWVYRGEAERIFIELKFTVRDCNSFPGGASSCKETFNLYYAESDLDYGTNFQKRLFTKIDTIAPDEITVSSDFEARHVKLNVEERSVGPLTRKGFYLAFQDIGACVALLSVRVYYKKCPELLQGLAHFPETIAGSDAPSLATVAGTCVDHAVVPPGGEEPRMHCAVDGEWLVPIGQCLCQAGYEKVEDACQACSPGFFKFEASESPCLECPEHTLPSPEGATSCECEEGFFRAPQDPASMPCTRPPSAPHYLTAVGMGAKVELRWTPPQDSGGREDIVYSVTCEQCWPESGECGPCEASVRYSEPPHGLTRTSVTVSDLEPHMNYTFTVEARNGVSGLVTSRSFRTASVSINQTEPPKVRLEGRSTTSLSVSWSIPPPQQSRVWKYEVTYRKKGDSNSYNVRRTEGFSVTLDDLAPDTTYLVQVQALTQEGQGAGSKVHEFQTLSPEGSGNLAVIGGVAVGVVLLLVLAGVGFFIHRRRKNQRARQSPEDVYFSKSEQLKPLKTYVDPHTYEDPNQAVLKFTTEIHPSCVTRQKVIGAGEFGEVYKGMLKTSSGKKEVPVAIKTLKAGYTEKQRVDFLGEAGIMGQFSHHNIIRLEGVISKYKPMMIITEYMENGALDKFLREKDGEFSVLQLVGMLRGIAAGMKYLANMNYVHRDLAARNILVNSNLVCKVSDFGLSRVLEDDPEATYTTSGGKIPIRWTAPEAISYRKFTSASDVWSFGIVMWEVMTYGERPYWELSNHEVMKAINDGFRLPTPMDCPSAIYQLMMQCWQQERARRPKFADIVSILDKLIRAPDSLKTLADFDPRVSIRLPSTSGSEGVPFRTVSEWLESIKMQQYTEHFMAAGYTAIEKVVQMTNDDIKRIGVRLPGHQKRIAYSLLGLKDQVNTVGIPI", "assay": "SelectScreen Z'LYTE", "format": "biochemical", "procedure,_shortened": "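SelectScreen broad panel; activity (Z'LYTE, Adapta) plus binding formats. ATP: Km app for CSF1R Z'LYTE; 10 for CAMK1 Adapta. Readout = % per kinase.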"}
{"compound": "CN(C(=O)CN1CCOCC1)c1ccc2sc3c(-c4cccc5c(=O)cc(N6CC7CCC(C6)O7)oc45)cccc3c2c1", "note": "[NU5455]", "values": [{"measurement": "inhibition at 1 µM", "result": 4.8, "unit": "%"}]}
